In brackets after ≈: the same amount, converted by molar mass. Where two headings read alike, the source gives them in different places.

Among the data in patent US4992449A, “7-(substituted)cycloalkylamino-1 -(substituted)-6-fluoro-1,4-dihydro-4-oxo-3-quinolinecarboxylic acids” (American Cyanamid Company, priority 1990, dated 1991) are MIC values, retold here.

Assay in all cases: In vitro antibacterial MIC, agar plate dilution
Holding throughout (type): cell-based

Experiment [1] concerns Staphylococcus aureus NEMC 87-59. The note with it: NEMC8759, 18 h, Table II. A digest of the protocol: (§1)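 Each organism, roughly 10^4 colony forming units, is stamped onto Mueller-Hinton agar plates carrying graded compound levels. After incubation (35° C, 18 h), MIC in mcg/ml is taken where visible growth is first inhibited.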
Experiment [2] has as its system Enterobacter cloacae MOR 84-30. Particulars: MOR8430, Mueller-Hinton agar, 10^4 CFU, 18 hours, 35° C. A digest of the protocol:
as §1

The subject of the next experiment is Staphylococcus SSC 82-56. Particulars: SSC8256, 18 h, Table II. In a few lines:
as §1

The test system of experiment [3] is Serratia marcescens VGH 84-30. The note with it: VGH8430, 18 h, Table II, read-out: MIC. In a few lines:
as §1

Experiment [4] has as its system Proteus rettgeri CMC 84-41. Particulars: Providencia rettgeri, CMC8441, 18 h, Table II, read-out: MIC. A digest of the protocol: as §1
For experiment [5], the system named is Excherichia coli CMC 84-11. The note with it: 18 h, Table II, read-out: MIC. A digest of the protocol:
as §1

Experiment [6] relates to Pseudomonas aeruginosa VGH 84-3. Particulars: VGH843, Mueller-Hinton agar, 10^4 CFU, 18 hours, 35° C. In a few lines: as §1
Experiment [7] has as its system Pseudomonas aeruginosa LL-1244. The note with it: Pseudomonas aeruginosa, LL1244, 18 h, Table II, read-out: MIC. A digest of the protocol: as §1
Experiment [8] concerns Escherichia coli MOR 84-20. The note with it: MOR8420, Mueller-Hinton agar, 10^4 CFU, 18 hours, 35° C. A digest of the protocol: as §1
Experiment [9] deals with Escherichia coli ATCC 25922. Particulars: Escherichia coli, ATCC25922, 18 h, read-out: MIC. A digest of the protocol: as §1
Experiment [10] deals with Morganella morganii MOR 84-45. The note with it: MOR8445, Mueller-Hinton agar, 10^4 CFU, 18 hours, 35° C. A digest of the protocol: as §1
Experiment [11] deals with Citrobacter diversus K 82-24. The note with it: Citrobacter koseri, K8224, Mueller-Hinton agar, 10^4 CFU, 18 hours, 35° C. A digest of the protocol: as §1
Experiment [12] concerns Staphylococcus aureus CMC 83-131. Particulars: CMC83131, Mueller-Hinton agar, 10^4 CFU, 18 hours, 35° C. A digest of the protocol: as §1
[13] abbreviates: Table I, Escherichia coli ATCC 25922, Mueller-Hinton agar, 10^4 CFU, 18 hours, 35° C.
Where [14] appears, read: Table II, Excherichia coli ATCC 25922.

For `N[C@H]1CCC[C@H]1Nc1cc2c(cc1F)c(=O)c(C(=O)O)cn2-c1ccc(F)cc1` (relative stereo) [Example 3], the MIC (as a rule, the least concentration at which growth counts as inhibited) stood at 4 µg/mL (≈ 10 µM) in experiment [1]; 8 µg/mL (≈ 20 µM) in experiment [2]; 2 µg/mL (≈ 5.01 µM) against Staphylococcus SSC 82-56; 8 µg/mL (≈ 20 µM) in experiment [3]; 4 µg/mL (≈ 10 µM) in [4]; 1 µg/mL (≈ 2.5 µM) in [5]. Moreover, the MIC was above 16 µg/mL in experiment [6]; 16 µg/mL (≈ 40.1 µM) in experiment [7]; 2 µg/mL (≈ 5.01 µM) in experiment [8]; 2 µg/mL (≈ 5.01 µM) in experiment [9] (setting [13]); 1 µg/mL (≈ 2.5 µM) in [9] (setting [14]); 4 µg/mL (≈ 10 µM) in experiment [10]. Moreover, the minimal inhibitory concentration (MIC) in experiment [11] was 2 µg/mL (≈ 5.01 µM); in experiment [12], above 16 µg/mL.

In the case of `CCn1cc(C(=O)O)c(=O)c2cc(F)c(N[C@@H]3CCC[C@@H]3N)cc21` (relative stereo) [Example 4, Cis-7-[(2-Aminocyclopentyl)amino]-1-ethyl-6-fluoro-1,4-dihydro-4-oxo-3-quinolinecarboxylic acid], the MIC in experiment [2] is 4 µg/mL (≈ 12 µM); in experiment [3], 16 µg/mL (≈ 48 µM); in experiment [4], 8 µg/mL (≈ 24 µM); in [5] it was 2 µg/mL (≈ 6 µM); in [6] it was above 16 µg/mL; in [7] it was 32 µg/mL (≈ 96 µM). Moreover, the MIC in [8] came out at 1 µg/mL (≈ 3 µM); in [9] (setting [13]) it was 0.5 µg/mL (≈ 1.5 µM); in [9] (setting [14]) it was 2 µg/mL (≈ 6 µM); in experiment [10], 0.5 µg/mL (≈ 1.5 µM); in experiment [11], 0.5 µg/mL (≈ 1.5 µM).
